Results as given in ChEMBL document CHEMBL1201862, “PubChem BioAssay data set” (2004).
Several values for one entry are separate records, joined by “and”; a condition that tells them apart may be missing. Identical values can stand only once. Activity calls are given as the source filed them.

How the values were obtained:
Assay type in all cases: functional
[1] = target: T1, Apoptotic protease-activating factor 1 (Homo sapiens, UniProt O14727); experiment: activation of Apaf-1 mediated apoptosis – fluorescent, uHTS hits, dose response (AID 588554)
T1 sequence (O14727 whole entry): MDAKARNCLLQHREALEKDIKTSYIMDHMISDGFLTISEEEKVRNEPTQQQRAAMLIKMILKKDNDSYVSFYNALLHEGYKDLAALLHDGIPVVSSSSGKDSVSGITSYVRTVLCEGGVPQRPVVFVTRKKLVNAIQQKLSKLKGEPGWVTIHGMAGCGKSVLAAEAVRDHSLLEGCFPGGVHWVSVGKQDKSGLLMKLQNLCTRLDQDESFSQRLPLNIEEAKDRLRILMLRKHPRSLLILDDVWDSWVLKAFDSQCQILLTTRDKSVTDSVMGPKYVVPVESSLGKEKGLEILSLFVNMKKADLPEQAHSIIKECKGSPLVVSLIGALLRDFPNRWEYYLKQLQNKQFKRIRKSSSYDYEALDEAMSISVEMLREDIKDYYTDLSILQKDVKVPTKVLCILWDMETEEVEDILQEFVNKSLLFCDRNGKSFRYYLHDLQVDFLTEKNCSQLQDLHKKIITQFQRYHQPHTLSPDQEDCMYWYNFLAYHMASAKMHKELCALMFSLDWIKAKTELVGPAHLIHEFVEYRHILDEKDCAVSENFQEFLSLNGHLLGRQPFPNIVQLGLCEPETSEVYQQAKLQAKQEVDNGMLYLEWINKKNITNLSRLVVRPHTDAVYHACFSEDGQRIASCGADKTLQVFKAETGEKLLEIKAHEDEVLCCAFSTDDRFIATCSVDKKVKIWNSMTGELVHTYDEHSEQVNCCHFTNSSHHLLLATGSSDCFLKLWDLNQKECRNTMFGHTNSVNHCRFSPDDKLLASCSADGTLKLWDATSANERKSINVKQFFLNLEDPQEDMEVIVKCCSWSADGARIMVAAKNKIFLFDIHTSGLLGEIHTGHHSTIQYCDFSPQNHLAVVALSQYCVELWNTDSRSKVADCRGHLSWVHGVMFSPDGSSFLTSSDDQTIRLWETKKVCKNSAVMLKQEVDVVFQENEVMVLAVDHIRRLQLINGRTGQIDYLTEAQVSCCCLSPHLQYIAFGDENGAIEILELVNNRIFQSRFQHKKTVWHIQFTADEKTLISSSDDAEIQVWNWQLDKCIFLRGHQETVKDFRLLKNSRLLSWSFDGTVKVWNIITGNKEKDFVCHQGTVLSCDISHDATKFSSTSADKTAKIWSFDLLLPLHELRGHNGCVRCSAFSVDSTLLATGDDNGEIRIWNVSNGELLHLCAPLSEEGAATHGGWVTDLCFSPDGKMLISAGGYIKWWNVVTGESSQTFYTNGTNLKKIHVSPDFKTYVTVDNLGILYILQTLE

[2] = target: T1, Apoptotic protease-activating factor 1; experiment: SAR analysis of small molecule Activators of Apaf-1 in a Fluorescent assay - set 2.; settings: read-out: EC50_Mean
[3] = SAR analysis of small molecule activators of Apaf-1 using a LZ-Caspase-9/Caspase-3 Fluorescent Selectivity assay - Set 2.; settings: read-out: EC50_Mean
[4] = target: T1, Apoptotic protease-activating factor 1; experiment: SAR analysis of small molecule Activators of Apaf-1 in a Fluorescent assay.; settings: read-out: EC50_Mean
[5] = target: Fibroblast growth factor receptor 1 (Homo sapiens, UniProt P11362)
[6] = target: Proto-oncogene tyrosine-protein kinase receptor Ret (Homo sapiens, UniProt P07949);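 also: measured within a kinome-wide profiling panel, RET as the panel member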
[7] = target: Platelet-derived growth factor receptor alpha (Homo sapiens, UniProt P16234); experiment: Navigating the Kinome. Panel member name: PDGFRA
Chain of Platelet-derived growth factor receptor alpha (P16234 whole entry): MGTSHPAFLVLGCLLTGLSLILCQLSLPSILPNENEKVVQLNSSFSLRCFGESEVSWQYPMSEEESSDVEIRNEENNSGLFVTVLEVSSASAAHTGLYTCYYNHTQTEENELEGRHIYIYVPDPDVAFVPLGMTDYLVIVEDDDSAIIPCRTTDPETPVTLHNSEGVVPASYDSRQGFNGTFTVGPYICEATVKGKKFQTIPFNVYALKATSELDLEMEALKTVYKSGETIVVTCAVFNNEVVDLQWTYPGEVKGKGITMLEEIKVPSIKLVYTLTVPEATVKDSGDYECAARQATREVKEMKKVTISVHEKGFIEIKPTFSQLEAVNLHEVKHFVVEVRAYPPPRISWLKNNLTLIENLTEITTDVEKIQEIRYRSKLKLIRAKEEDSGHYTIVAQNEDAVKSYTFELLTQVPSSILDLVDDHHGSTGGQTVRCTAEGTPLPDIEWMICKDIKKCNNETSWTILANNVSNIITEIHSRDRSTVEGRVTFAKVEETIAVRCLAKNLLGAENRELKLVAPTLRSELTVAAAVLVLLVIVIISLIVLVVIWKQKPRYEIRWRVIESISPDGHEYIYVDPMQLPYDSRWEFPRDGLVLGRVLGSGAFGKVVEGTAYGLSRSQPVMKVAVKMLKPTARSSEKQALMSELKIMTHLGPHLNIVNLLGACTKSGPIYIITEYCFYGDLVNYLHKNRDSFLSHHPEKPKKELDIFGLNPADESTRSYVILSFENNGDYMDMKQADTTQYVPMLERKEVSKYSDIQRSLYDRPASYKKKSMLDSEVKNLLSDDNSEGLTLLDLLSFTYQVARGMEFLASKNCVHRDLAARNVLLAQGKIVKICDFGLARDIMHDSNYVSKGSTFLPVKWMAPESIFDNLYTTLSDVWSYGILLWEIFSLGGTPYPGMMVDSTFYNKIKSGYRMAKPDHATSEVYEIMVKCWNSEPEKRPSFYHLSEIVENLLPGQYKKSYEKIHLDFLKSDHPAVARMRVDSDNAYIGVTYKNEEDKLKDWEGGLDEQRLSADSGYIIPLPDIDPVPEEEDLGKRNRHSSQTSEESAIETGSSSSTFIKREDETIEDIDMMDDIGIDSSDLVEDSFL

[8] = target: Cyclin-dependent kinase 9 (Homo sapiens, UniProt P50750);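 also: value from the CDK9 entry of a kinome-spanning kinase panel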
[9] = target: 5'-AMP-activated protein kinase catalytic subunit alpha-1 (Homo sapiens, UniProt Q13131)
[10] = target: Activated CDC42 kinase 1 (Homo sapiens, UniProt Q07912); experiment: Navigating the Kinome. Panel member name: ACK1
[11] = target: Leukocyte tyrosine kinase receptor (Homo sapiens, UniProt P29376); experiment: Navigating the Kinome. Panel member name: LTK
[12] = target: Dual specificity mitogen-activated protein kinase kinase 2 (Homo sapiens, UniProt P36507); experiment: Navigating the Kinome. Panel member name: MAP2K2
[13] = target: Cyclin-dependent kinase 7 (Homo sapiens, UniProt P50613);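 also: value comes from a kinome-wide kinase profiling panel in which CDK7 is one member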
[14] = target: Cyclin-dependent kinase 5 (Homo sapiens, UniProt Q00535);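 also: CDK5 measured as one member of a kinase profiling panel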
[15] = target: Mitogen-activated protein kinase kinase kinase kinase 2 (Homo sapiens, UniProt Q12851);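 also: measured as one member of a kinome-wide kinase panel, with MAP4K2 as the panel entry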
[16] = target: Ribosomal protein S6 kinase alpha-3 (Homo sapiens, UniProt P51812);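 also: measured within a kinome-wide profiling panel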
[17] = target: BDNF/NT-3 growth factors receptor (Homo sapiens, UniProt Q16620);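 also: NTRK2 measured as one member of a broad kinome-wide kinase profiling panel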
[18] = target: Aurora kinase A (Homo sapiens, UniProt O14965);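 also: value from the Navigating the Kinome kinase panel profiling, panel entry STK6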
[19] = target: Dual specificity protein kinase CLK2 (Homo sapiens, UniProt P49760)
[20] = target: Protein kinase C theta type (Homo sapiens, UniProt Q04759); experiment: Navigating the Kinome. Panel member name: PRKCQ
[21] = target: Death-associated protein kinase 3 (Homo sapiens, UniProt O43293);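 also: measured as one member of a kinome-wide profiling panel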
[22] = target: ALK tyrosine kinase receptor (Homo sapiens, UniProt Q9UM73);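 also: ALK tested as one member of a kinase panel screen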
[23] = target: Tyrosine-protein kinase Fyn (Homo sapiens, UniProt P06241)
Chain of Tyrosine-protein kinase Fyn (P06241 whole entry): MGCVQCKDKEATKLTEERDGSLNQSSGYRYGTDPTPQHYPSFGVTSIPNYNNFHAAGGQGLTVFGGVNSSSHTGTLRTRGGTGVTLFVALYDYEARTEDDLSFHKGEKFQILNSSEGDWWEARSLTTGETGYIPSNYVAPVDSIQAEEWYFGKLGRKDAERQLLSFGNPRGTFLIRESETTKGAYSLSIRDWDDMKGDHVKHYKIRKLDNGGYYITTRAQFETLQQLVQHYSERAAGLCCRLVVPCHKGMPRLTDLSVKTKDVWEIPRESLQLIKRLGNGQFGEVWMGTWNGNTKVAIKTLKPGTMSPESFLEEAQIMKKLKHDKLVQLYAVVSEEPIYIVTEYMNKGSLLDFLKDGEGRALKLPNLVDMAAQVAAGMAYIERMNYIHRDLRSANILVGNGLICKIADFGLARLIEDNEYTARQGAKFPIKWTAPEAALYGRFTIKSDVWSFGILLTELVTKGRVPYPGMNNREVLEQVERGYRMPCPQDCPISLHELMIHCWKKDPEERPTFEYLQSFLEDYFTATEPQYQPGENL

[24] = target: Leucine-rich repeat serine/threonine-protein kinase 2 (Homo sapiens, UniProt Q5S007);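 also: value from a broad kinome-wide panel profiling study in which LRRK2 was one of the kinases tested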
[25] = target: G protein-coupled receptor kinase 5 (Homo sapiens, UniProt P34947); experiment: Navigating the Kinome. Panel member name: GPRK5
[26] = target: Tyrosine-protein kinase ABL1 (Homo sapiens, UniProt P00519)
[27] = target: Macrophage colony-stimulating factor 1 receptor (Homo sapiens, UniProt P07333);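 also: value comes from the Navigating the Kinome screening panel, CSF1R member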
[28] = target: Insulin-like growth factor 1 receptor (Homo sapiens, UniProt P08069); experiment: Navigating the Kinome. Panel member name: IGF1R
Chain of Insulin-like growth factor 1 receptor (P08069 31-736 limits assumed): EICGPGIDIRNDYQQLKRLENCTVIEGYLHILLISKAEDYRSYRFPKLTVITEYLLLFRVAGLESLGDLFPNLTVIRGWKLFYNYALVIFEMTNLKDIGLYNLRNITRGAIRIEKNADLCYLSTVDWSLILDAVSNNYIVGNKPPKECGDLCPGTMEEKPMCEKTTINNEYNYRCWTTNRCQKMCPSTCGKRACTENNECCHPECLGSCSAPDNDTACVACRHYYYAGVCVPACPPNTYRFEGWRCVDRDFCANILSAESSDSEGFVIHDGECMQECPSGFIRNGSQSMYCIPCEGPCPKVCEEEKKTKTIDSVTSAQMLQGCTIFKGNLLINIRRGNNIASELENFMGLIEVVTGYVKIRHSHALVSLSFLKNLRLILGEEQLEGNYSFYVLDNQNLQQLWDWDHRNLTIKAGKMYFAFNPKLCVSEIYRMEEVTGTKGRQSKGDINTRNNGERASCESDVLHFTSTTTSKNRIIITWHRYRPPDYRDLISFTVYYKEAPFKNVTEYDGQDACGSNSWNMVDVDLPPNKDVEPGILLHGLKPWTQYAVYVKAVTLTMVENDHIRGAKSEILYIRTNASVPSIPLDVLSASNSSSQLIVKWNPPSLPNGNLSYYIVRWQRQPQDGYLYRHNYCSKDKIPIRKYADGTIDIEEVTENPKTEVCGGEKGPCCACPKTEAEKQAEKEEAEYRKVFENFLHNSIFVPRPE
Chain of Insulin-like growth factor 1 receptor (P08069 741-1367 limits assumed): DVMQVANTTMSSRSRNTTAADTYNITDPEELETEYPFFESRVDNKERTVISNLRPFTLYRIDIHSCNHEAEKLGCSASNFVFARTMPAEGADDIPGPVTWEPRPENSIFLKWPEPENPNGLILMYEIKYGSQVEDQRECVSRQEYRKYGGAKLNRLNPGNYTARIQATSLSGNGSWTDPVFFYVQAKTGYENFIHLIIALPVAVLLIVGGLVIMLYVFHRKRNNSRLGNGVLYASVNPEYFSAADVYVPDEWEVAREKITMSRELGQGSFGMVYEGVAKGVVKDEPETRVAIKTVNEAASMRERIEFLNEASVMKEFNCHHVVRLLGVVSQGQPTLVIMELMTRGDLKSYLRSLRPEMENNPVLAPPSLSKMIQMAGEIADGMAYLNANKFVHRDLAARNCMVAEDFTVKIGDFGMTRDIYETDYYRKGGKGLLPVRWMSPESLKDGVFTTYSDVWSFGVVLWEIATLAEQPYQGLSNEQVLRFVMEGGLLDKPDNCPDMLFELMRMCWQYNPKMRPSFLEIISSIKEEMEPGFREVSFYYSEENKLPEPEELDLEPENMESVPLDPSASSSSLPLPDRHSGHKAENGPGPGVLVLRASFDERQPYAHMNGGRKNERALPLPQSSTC

[29] = target: Inhibitor of nuclear factor kappa-B kinase subunit epsilon (Homo sapiens, UniProt Q14164); experiment: Navigating the Kinome. Panel member name: IKBKE
Chain of Inhibitor of nuclear factor kappa-B kinase subunit epsilon (Q14164 whole entry): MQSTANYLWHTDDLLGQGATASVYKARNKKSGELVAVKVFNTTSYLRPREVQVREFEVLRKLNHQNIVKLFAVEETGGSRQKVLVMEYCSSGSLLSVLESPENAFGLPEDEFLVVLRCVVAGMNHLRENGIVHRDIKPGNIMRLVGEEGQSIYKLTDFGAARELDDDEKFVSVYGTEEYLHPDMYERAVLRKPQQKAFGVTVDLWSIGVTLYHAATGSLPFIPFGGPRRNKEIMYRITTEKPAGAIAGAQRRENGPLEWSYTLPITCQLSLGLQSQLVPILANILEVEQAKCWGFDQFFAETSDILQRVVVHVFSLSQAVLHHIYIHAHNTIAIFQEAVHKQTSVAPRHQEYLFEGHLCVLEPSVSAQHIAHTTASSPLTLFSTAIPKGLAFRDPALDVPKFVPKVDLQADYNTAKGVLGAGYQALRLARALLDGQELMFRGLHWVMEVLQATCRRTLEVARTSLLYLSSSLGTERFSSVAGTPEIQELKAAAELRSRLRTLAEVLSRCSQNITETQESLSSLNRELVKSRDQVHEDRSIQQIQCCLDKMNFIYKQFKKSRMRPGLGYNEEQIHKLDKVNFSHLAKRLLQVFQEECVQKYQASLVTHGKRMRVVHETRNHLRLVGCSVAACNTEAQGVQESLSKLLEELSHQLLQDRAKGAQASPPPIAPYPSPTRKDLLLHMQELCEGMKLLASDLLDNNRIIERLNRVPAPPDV

[30] = target: High affinity nerve growth factor receptor (Homo sapiens, UniProt P04629);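 also: NTRK1 tested as one member of a kinome-wide profiling panel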
[31] = target: Vascular endothelial growth factor receptor 2 (Homo sapiens, UniProt P35968)
[32] = target: Glycogen synthase kinase-3 alpha (Homo sapiens, UniProt P49840);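 also: GSK3A result taken from a broad kinome-wide kinase panel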
[33] = target: Rho-associated protein kinase 1 (Homo sapiens, UniProt Q13464);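 also: measured within a broad kinome-wide panel profiling many kinases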
[34] = target: Dual specificity tyrosine-phosphorylation-regulated kinase 1A (Homo sapiens, UniProt Q13627);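 also: measured against DYRK1A as one member of a broad kinome profiling panel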
[35] = target: Mitogen-activated protein kinase 9 (Homo sapiens, UniProt P45984);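 also: value from a kinome panel profiling assay, MAPK9 panel entry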
Chain of Mitogen-activated protein kinase 9 (P45984 whole entry): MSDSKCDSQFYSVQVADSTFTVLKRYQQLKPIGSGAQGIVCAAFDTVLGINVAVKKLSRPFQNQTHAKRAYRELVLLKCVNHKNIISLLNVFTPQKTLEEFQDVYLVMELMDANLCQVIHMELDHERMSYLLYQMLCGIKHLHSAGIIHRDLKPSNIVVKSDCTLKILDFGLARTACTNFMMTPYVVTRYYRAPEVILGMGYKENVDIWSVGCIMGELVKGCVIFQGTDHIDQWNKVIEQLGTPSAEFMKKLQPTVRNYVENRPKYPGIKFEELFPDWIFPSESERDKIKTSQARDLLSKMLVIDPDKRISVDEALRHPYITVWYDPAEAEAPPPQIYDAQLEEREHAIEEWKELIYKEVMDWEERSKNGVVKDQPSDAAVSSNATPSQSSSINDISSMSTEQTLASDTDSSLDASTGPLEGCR

[36] = target: Serine/threonine-protein kinase pim-1 (Homo sapiens, UniProt P11309)
[37] = target: Vascular endothelial growth factor receptor 1 (Homo sapiens, UniProt P17948);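 also: measured within a kinome-wide profiling panel, FLT1 as the panel member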
[38] = target: Cyclin-dependent kinase 8 (Homo sapiens, UniProt P49336); experiment: Navigating the Kinome. Panel member name: CDK8
[39] = target: Aurora kinase B (Homo sapiens, UniProt Q96GD4)
[40] = target: Mitogen-activated protein kinase 14 (Homo sapiens, UniProt Q16539);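 also: part of a kinome-wide panel, MAPK14 entry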
[41] = target: Receptor-type tyrosine-protein kinase FLT3 (Homo sapiens, UniProt P36888);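 also: FLT3 was tested as one member of a kinome-wide kinase panel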
[42] = target: Activin receptor type-1 (Homo sapiens, UniProt Q04771); experiment: Navigating the Kinome. Panel member name: ACVR1
[43] = target: Tyrosine-protein kinase BTK (Homo sapiens, UniProt Q06187)
[44] = target: Tyrosine-protein kinase JAK2 (Homo sapiens, UniProt O60674);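 also: JAK2 tested as one member of a kinase panel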
[45] = target: Serine/threonine-protein kinase TBK1 (Homo sapiens, UniProt Q9UHD2); experiment: Navigating the Kinome. Panel member name: TBK1
[46] = target: Macrophage-stimulating protein receptor (Homo sapiens, UniProt Q04912); experiment: Navigating the Kinome. Panel member name: MST1R
[47] = target: cAMP-dependent protein kinase catalytic subunit PRKX (Homo sapiens, UniProt P51817)
Chain of cAMP-dependent protein kinase catalytic subunit PRKX (P51817 whole entry): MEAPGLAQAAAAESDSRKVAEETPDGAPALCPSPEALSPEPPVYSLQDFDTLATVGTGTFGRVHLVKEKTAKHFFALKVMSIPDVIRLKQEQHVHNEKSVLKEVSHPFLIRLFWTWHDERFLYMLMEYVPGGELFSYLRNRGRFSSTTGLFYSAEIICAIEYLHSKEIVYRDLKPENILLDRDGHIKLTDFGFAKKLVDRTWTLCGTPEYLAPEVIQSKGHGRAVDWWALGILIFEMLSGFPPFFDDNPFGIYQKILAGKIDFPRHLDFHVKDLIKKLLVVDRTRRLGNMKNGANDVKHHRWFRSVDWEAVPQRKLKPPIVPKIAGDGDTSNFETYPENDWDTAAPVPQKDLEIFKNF

[48] = target: Dual specificity mitogen-activated protein kinase kinase 1 (Homo sapiens, UniProt Q02750); experiment: Navigating the Kinome. Panel member name: MAP2K1
[49] = target: Calcium/calmodulin-dependent protein kinase type II subunit alpha (Homo sapiens, UniProt Q9UQM7); experiment: Navigating the Kinome. Panel member name: CAMK2A
[50] = target: Mitogen-activated protein kinase 8 (Homo sapiens, UniProt P45983);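 also: value comes from one member of a kinome-wide kinase profiling panel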
Chain of Mitogen-activated protein kinase 8 (P45983 whole entry): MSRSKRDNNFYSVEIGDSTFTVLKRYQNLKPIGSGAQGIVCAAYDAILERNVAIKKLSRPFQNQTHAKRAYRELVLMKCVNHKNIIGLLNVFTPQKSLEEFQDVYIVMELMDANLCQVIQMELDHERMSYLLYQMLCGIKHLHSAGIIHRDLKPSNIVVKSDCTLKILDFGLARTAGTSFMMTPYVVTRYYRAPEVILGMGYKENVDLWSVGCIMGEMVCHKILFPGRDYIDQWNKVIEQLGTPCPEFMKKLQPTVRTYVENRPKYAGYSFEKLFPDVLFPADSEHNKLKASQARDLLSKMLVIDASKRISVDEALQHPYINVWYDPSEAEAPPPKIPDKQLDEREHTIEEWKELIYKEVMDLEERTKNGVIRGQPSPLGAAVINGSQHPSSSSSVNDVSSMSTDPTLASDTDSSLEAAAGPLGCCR

[51] = target: Dual specificity protein kinase CLK4 (Homo sapiens, UniProt Q9HAZ1)
[52] = target: Serine/threonine-protein kinase PAK 4 (Homo sapiens, UniProt O96013);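 also: value obtained within a kinome profiling panel in which PAK4 was one of the panel members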
[53] = target: Serine/threonine-protein kinase TAO1 (Homo sapiens, UniProt Q7L7X3)
[54] = target: Tyrosine-protein kinase JAK3 (Homo sapiens, UniProt P52333)
[55] = target: Hepatocyte growth factor receptor (Homo sapiens, UniProt P08581);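 also: kinase panel profiling across the kinome, with MET as the panel member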
[56] = target: Dual specificity tyrosine-phosphorylation-regulated kinase 1B (Homo sapiens, UniProt Q9Y463); experiment: Navigating the Kinome. Panel member name: DYRK1B
[57] = target: Serine/threonine-protein kinase D3 (Homo sapiens, UniProt O94806);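 also: determined within a kinase panel screen, with PRKCN as the panel member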
[58] = target: Glycogen synthase kinase-3 beta (Homo sapiens, UniProt P49841);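 also: value comes from a broad kinome profiling panel, with GSK3B as the panel member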
[59] = target: Mitogen-activated protein kinase kinase kinase kinase 4 (Homo sapiens, UniProt O95819)
[60] = target: cAMP-dependent protein kinase catalytic subunit alpha (Homo sapiens, UniProt P17612)
[61] = target: Tyrosine-protein kinase receptor TYRO3 (Homo sapiens, UniProt Q06418);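 also: TYRO3 value obtained as one member of a kinome-wide profiling panel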

## CC(Cc1c[nH]c2ccccc12)C(=O)O (stereo unspecified)
[1]
  EC50: 2.25 µM (active)
[2]
  EC50: 9.48 µM (active) and 8.03 µM (active)
[3]
  EC50: > 99 µM (inactive) and > 100 µM (inactive)
[4]
  EC50: 8.95 µM (active)

## O=C(Nc1cccc(C(F)(F)F)n1)Nc1ccnc2ccc(Cl)cc12
[5]
  Ki: > 3.98 µM (inactive)
[6]
  Ki: > 3.16 µM (inactive)
[7]
  Ki: > 2.51 µM (inactive)
[8]
  Ki: > 1.58 µM (inactive)
[9]
  Ki: > 3.16 µM (inactive)
[10]
  Ki: > 3.98 µM (inactive)
[11]
  Ki: > 2.51 µM (inactive)
[12]
  Ki: > 3.98 µM (inactive)
[13]
  Ki: > 3.98 µM (inactive)
[14]
  Ki: > 3.16 µM (inactive)
[15]
  Ki: > 2.51 µM (inactive)
[16]
  Ki: > 3.98 µM (inactive)
[17]
  Ki: > 3.98 µM (inactive)
[18]
  Ki: > 1.58 µM (inactive)
[19]
  Ki: 3.16 µM (active)
[20]
  Ki: > 2.51 µM (inactive)
[21]
  Ki: 5.01 µM (active)
[22]
  Ki: > 6.31 µM (inactive)
[23]
  Ki: > 6.31 µM (inactive)
[24]
  Ki: > 2.51 µM (inactive)
[25]
  Ki: > 3.98 µM (inactive)
[26]
  Ki: 2 µM (active)
[27]
  Ki: > 2.51 µM (inactive)
[28]
  Ki: > 2.51 µM (inactive)
[29]
  Ki: > 3.16 µM (inactive)
[30]
  Ki: > 3.16 µM (inactive)
[31]
  Ki: > 2.51 µM (inactive)
[32]
  Ki: 63.1 nM (active)
[33]
  Ki: > 3.98 µM (inactive)
[34]
  Ki: > 2 µM (inactive)
[35]
  Ki: > 3.98 µM (inactive)
[36]
  Ki: > 6.31 µM (inactive)
[37]
  Ki: > 3.98 µM (inactive)
[38]
  Ki: 63.1 nM (active)
[39]
  Ki: > 3.98 µM (inactive)
[40]
  Ki: > 3.98 µM (inactive)
[41]
  Ki: > 3.16 µM (inactive)
[42]
  Ki: 1.58 µM (active)
[43]
  Ki: > 6.31 µM (inactive)
[44]
  Ki: > 2.51 µM (inactive)
[45]
  Ki: > 3.16 µM (inactive)
[46]
  Ki: > 3.98 µM (inactive)
[47]
  Ki: > 3.16 µM (inactive)
[48]
  Ki: > 3.16 µM (inactive)
[49]
  Ki: > 7.94 µM (inactive)
[50]
  Ki: > 5.01 µM (inactive)
[51]
  Ki: 158 nM (active)
[52]
  Ki: > 5.01 µM (inactive)
[53]
  Ki: > 6.31 µM (inactive)
[54]
  Ki: > 5.01 µM (inactive)
[55]
  Ki: > 2.51 µM (inactive)
[56]
  Ki: 1.58 µM (active)
[57]
  Ki: > 3.98 µM (inactive)
[58]
  Ki: 39.8 nM (active)
[59]
  Ki: > 5.01 µM (inactive)
[60]
  Ki: > 1.26 µM (inactive)
[61]
  Ki: 2.51 µM (active)
